Data set [1] can be described thus: in vivo. The note with it: female, CD-1, mouse.
For data set [2] the following is noted: female, CD-1, mouse, in vivo, po, 0.167 h.
Data set [3] relates to MAPK signaling. The note with it: cited from earlier work.
Data set [4] relates to SET-2 cells. Nature of the data set: SET-2 proliferation assay (CellTiter-Fluor). It counts as cell-based, human. The note with it: 72 h, replicates (Fig. 2d). The method, then:
Viable cells were counted by CellTiter-Fluor Assay (Promega) according to manufacturer’s protocol, and all fluorescence values were corrected by a no-cell control. […] Caspase activity was measured by Caspase-Glo 3/7 assay (Promega) according to the manufacturer’s protocol, and all luminescence values were corrected by a no-cell control. Dose response proliferation and Caspase activation data was normalized to vehicle treated control cells and analyzed by non-linear regression for determination of IC50 values. Data was generated from n = 3 independent experiments performed in replicate.

Data set [5] is described as follows: Pharmacokinetic analysis of plasma after intravenous and oral dosing.
A short description of data set [6]: Compound quantitation in blood and mesenteric lymph nodes. In kind it is in vivo, mouse. To be noted: mice, 4 h after oral 100 mg kg^−1. As to the method:
Whole blood and mesenteric lymph nodes were collected either 30 min or 4 h following compound administration and stored at −20 °C until future processing and analysis by the University of Michigan Pharmacokinetics Core as above, or as outlined below, to determine compound concentrations in each tissue. […] Data was generated from n ≥ 4 individual animals per compound per study group or dose.
Briefly, acetonitrile was added to a final concentration of 60–80% to bone marrow, whole blood, plasma, lymphatic fluid, lymphatic proteo-lipid sub-fractions, or mesenteric lymph node samples for compound extraction. Extraction was performed by shaking and/or bead rupture using a Precellys Evolution tissue homogenizer (Bertin Technologies SAS). […] Optimization of MS and MS/MS parameters for MRM quantitation and maximum sensitivity of individual compounds was performed using SCIEX Analyst software (AB Sciex). […] All LC-MS/MS acquisitions were performed with an independent standard curve for each group of analytes and for each individual run. All solvents utilized were of Optima LC-MS Grade (Fisher Scientific). Data was generated from n ≥ 2 individual animals per compound per study condition or dose.

SMILES strings stand for the structures. Where “and” joins values, the source holds several entries; their conditions need not be identical. Equal entries are not always repeated.

As to `COc1ccc(-c2ccc3c(N4CCOC[C@@H]4C)nc(N4CCOC[C@@H]4C)nc3n2)cc1CO` [AZD8055], in data set [1] (iv), the concentration at 0.167 h was determined as 3300 ng/mL, the concentration at 0.5 h was 2510 ng/mL, the concentration at 1 h was 1710 ng/mL and the concentration at 2 h turned out to be 744 ng/mL. The same molecule returned a concentration at 24 h in data set [1] (iv) of 1 ng/mL. In addition, in data set [1] (po), the concentration at 0.167 h is 626 ng/mL, the concentration at 0.5 h came out at 3700 ng/mL, the concentration at 1 h turned out to be 3440 ng/mL and the concentration at 2 h stood at 4880 ng/mL. In data set [1] (po), the concentration at 7 h stood at 3930 ng/mL and the concentration at 16 h was found to be 4430 ng/mL. The Concentration in data set [2] is 704 ng/mL.
With `O=C(NOC[C@H](O)CO)c1ccc(F)c(F)c1Nc1ccc(I)cc1F` [PD0325901], the “plasma concentration with significant pharmacologic activity against MAPK signaling” value in data set [3] is given as over 50 ng mL^−1.
As for `O=C(NOCCO)c1ccc(F)c(F)c1Nc1ccc(I)cc1F` [PD0316684, reference compound], the “Growth (%)” value is 95.6027% and 82.3855% and 49.4653% and 99.6209% and 66.699% and 96.6844% in data set [4] (0.0390625 µM); 101.495% and 98.0639% and 103.106% and 103.604% and 92.0053% and 98.1242% in data set [4] (0.078125 µM); 100.075% and 88.7042% and 52.4529% and 86.403% and 62.7397% and 78.9368% in data set [4] (0.15625 µM); 97.1172% and 98.6318% and 60.2388% and 84.8639% and 78.1339% and 80.2658% in data set [4] (0.3125 µM); 88.0297% and 91.2009% and 71.3744% and 84.6376% and 79.2414% and 81.5948% in data set [4] (0.625 µM); 71.6887% and 74.5167% and 60.9631% and 39.5066% and 70.9074% and 51.4432% in data set [4] (5 µM). In addition, the “Growth (%)” value in data set [4] (10 µM) is 49.6443% and 48.6858% and 23.1653% and 17.5522% and 22.5652% and 22.2053%; in data set [4] (20 µM), 15.211% and 15.14% and -3.18% and -3.361% and -4.513% and -3.5163%. Also, the concentration at 0.167 h came out at 771 ng/mL in data set [5] (female, CD-1, mouse, plasma, iv, 15 mg kg^−1, Concentration (ng/mL), mice, single i.v. LP-182 15 mg kg^−1, 0.167 h, analyte = label, individual animals); 89.6 ng/mL in data set [5] (female, CD-1, mouse, plasma, iv, 15 mg kg^−1, Concentration, Figure 6c, Time 0.167 h, individual replicates); 234 ng/mL in data set [5] (female, CD-1, mouse, plasma, iv, 15 mg kg^−1, Concentration, Figure 6d, Time 0.167 h, individual replicates); 175 ng/mL in data set [5] (female, CD-1, mouse, plasma, po, 400 mg kg^−1, Concentration (ng/mL), mice, single p.o. LP-182 400 mg kg^−1, 0.167 h, analyte = label, individual animals). For the same molecule, the concentration at 1 h is 95.3 ng/mL in data set [5] (female, CD-1, mouse, plasma, iv, 15 mg kg^−1, Concentration (ng/mL), mice, single i.v. LP-182 15 mg kg^−1, 1 h, analyte = label, individual animals); 39.4 ng/mL in data set [5] (female, CD-1, mouse, plasma, iv, 15 mg kg^−1, Concentration, Figure 6c, Time 1 h, individual replicates); 112 ng/mL in data set [5] (female, CD-1, mouse, plasma, iv, 15 mg kg^−1, Concentration, Figure 6d, Time 1 h, individual replicates); 156 ng/mL in data set [5] (female, CD-1, mouse, plasma, po, 200 mg kg^−1, Concentration, Figure 6d, Time 1 h, individual replicates); 500 ng/mL in data set [5] (female, CD-1, mouse, plasma, po, 400 mg kg^−1, Concentration (ng/mL), mice, single p.o. LP-182 400 mg kg^−1, 1 h, analyte = label, individual animals). Further, the concentration at 2 h in data set [5] (female, CD-1, mouse, plasma, iv, 15 mg kg^−1, Concentration (ng/mL), mice, single i.v. LP-182 15 mg kg^−1, 2 h, analyte = label, individual animals) is 58.1 ng/mL; in data set [5] (female, CD-1, mouse, plasma, iv, 15 mg kg^−1, Concentration, Figure 6c, Time 2 h, individual replicates), 18.7 ng/mL; in data set [5] (female, CD-1, mouse, plasma, iv, 15 mg kg^−1, Concentration, Figure 6d, Time 2 h, individual replicates), 62.8 ng/mL. In addition, the concentration at 4 h turned out to be 18.6 ng/mL in data set [5] (female, CD-1, mouse, plasma, iv, 15 mg kg^−1, Concentration (ng/mL), mice, single i.v. LP-182 15 mg kg^−1, 4 h, analyte = label, individual animals); 39.4 ng/mL in data set [5] (female, CD-1, mouse, plasma, iv, 15 mg kg^−1, Concentration, Figure 6d, Time 4 h, individual replicates); 76.7 ng/mL in data set [5] (female, CD-1, mouse, plasma, po, 400 mg kg^−1, Concentration (ng/mL), mice, single p.o. LP-182 400 mg kg^−1, 4 h, analyte = label, individual animals). Moreover, the concentration at 7 h in data set [5] (female, CD-1, mouse, plasma, iv, 15 mg kg^−1, Concentration (ng/mL), mice, single i.v. LP-182 15 mg kg^−1, 7 h, analyte = label, individual animals) is 5.74 ng/mL; in data set [5] (female, CD-1, mouse, plasma, iv, 15 mg kg^−1, Concentration, Figure 6d, Time 7 h, individual replicates) it was 35.3 ng/mL; in data set [5] (female, CD-1, mouse, plasma, po, 200 mg kg^−1, Concentration, Figure 6c, Time 7 h, individual replicates) it was 260 ng/mL; in data set [5] (female, CD-1, mouse, plasma, po, 200 mg kg^−1, Concentration, Figure 6d, Time 7 h, individual replicates) it was 201 ng/mL. The concentration at 16 h was 3.59 ng/mL in data set [5] (female, CD-1, mouse, plasma, iv, 15 mg kg^−1, Concentration (ng/mL), mice, single i.v. LP-182 15 mg kg^−1, 16 h, analyte = label, individual animals) and 68.3 ng/mL in data set [5] (female, CD-1, mouse, plasma, po, 400 mg kg^−1, Concentration (ng/mL), mice, single p.o. LP-182 400 mg kg^−1, 16 h, analyte = label, individual animals). In addition, the concentration at 0.5 h amounted to 241 ng/mL in data set [5] (female, CD-1, mouse, plasma, iv, 15 mg kg^−1, Concentration, Figure 6d, Time 0.5 h, individual replicates); 644 ng/mL in data set [5] (female, CD-1, mouse, plasma, po, 200 mg kg^−1, Concentration, Figure 6c, Time 0.5 h, individual replicates); 254 ng/mL in data set [5] (female, CD-1, mouse, plasma, po, 200 mg kg^−1, Concentration, Figure 6d, Time 0.5 h, individual replicates); 399 ng/mL in data set [5] (female, CD-1, mouse, plasma, po, 400 mg kg^−1, Concentration (ng/mL), mice, single p.o. LP-182 400 mg kg^−1, 0.5 h, analyte = label, individual animals). In addition, the concentration at 24 h in data set [5] (female, CD-1, mouse, plasma, iv, 15 mg kg^−1, Concentration, Figure 6d, Time 24 h, individual replicates) was determined as 3.46 ng/mL; in data set [5] (female, CD-1, mouse, plasma, po, 400 mg kg^−1, Concentration (ng/mL), mice, single p.o. LP-182 400 mg kg^−1, 24 h, analyte = label, individual animals) it was 78.6 ng/mL. The molecule also registered a concentration at […] in data set [5] (female, CD-1, mouse, plasma, po, 200 mg kg^−1, Concentration, Figure 6d, Time […], individual replicates) of 131 ng/mL. In addition, the “plasma level maintained over 24 h” value in data set [5] (mice, after oral LP-182 400 mg kg^−1, analyte = label) is about 100 ng/mL. For the same molecule, the “uptake in the mesenteric lymph nodes compared to LP5-37” value in data set [6] was “reduced uptake”.

The record behind these values is publication PMC9386018, “A lymphatic-absorbed multi-targeted kinase inhibitor for myelofibrosis therapy” (Nature Communications, 2022).
